{"source": "patent US8192962B2", "about": "“Processes for detecting toxic substances” (Daikin Industries, Ltd., priority 2001, dated 2012)", "system": "Transport facilitation protein genes", "assay": "DNA chip mRNA expression in yeast, transport facilitation protein genes (Table 5)", "assay_type": "cell-based, Saccharomyces cerevisiae S288C", "how_it_was_run": "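Value is the scanned fluorescence intensity ratio of exposed versus chemical-free cells. Log-phase S288C yeast in YPD at 25° C. received one toxic substance for two hours, dosed to slow growth without killing; Cy3/Cy5-labeled cDNA from oligo-dT-purified mRNA was hybridized to a whole-genome chip at 65° C.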", "data": [{"smiles": "C=CC=O", "note": "[(14), acrolein]", "values": [{"measurement": "The level of expressed mRNA in the presence of chemical substance/The level of expressed mRNA in the absence of chemical substance", "setting": "yeast gene YBL030C", "value": 0.8}, {"measurement": "The level of expressed mRNA in the presence of chemical substance/The level of expressed mRNA in the absence of chemical substance", "setting": "yeast gene YBL099W", "value": 0.6}, {"measurement": "The level of expressed mRNA in the presence of chemical substance/The level of expressed mRNA in the absence of chemical substance", "setting": "yeast gene YBR052C", "value": 1.5}, {"measurement": "The level of expressed mRNA in the presence of chemical substance/The level of expressed mRNA in the absence of chemical substance", "setting": "yeast gene YBR068C", "value": 1.8}, {"measurement": "The level of expressed mRNA in the presence of chemical substance/The level of expressed mRNA in the absence of chemical substance", "setting": "yeast gene YBR127C", "value": 0.6}, {"measurement": "The level of expressed mRNA in the presence of chemical substance/The level of expressed mRNA in the absence of chemical substance", "setting": "yeast gene YBR132C", "value": 1.1}, {"measurement": "The level of expressed mRNA in the presence of chemical substance/The level of expressed mRNA in the absence of chemical substance", "setting": "yeast gene YBR207W", "value": 0.9}, {"measurement": "The level of expressed mRNA in the presence of chemical substance/The level of expressed mRNA in the absence of chemical substance", "setting": "yeast gene YBR293W", "value": 1.4}, {"measurement": "The level of expressed mRNA in the presence of chemical substance/The level of expressed mRNA in the absence of chemical substance", "setting": "yeast gene YBR294W", "value": 1.3}, {"measurement": "The level of expressed mRNA in the presence of chemical substance/The level of expressed mRNA in the absence of chemical substance", "setting": "yeast gene YBR295W", "value": 1.1}, {"measurement": "The level of expressed mRNA in the presence of chemical substance/The level of expressed mRNA in the absence of chemical substance", "setting": "yeast gene YBR298C", "value": 0.9}, {"measurement": "The level of expressed mRNA in the presence of chemical substance/The level of expressed mRNA in the absence of chemical substance", "setting": "yeast gene YCL025C", "value": 0.7}, {"measurement": "The level of expressed mRNA in the presence of chemical substance/The level of expressed mRNA in the absence of chemical substance", "setting": "yeast gene YCL038C", "value": 1.3}, {"measurement": "The level of expressed mRNA in the presence of chemical substance/The level of expressed mRNA in the absence of chemical substance", "setting": "yeast gene YCR024C-A", "value": 0.8}, {"measurement": "The level of expressed mRNA in the presence of chemical substance/The level of expressed mRNA in the absence of chemical substance", "setting": "yeast gene YCR037C", "value": 0.8}, {"measurement": "The level of expressed mRNA in the presence of chemical substance/The level of expressed mRNA in the absence of chemical substance", "setting": "yeast gene YCR098C", "value": 1.1}, {"measurement": "The level of expressed mRNA in the presence of chemical substance/The level of expressed mRNA in the absence of chemical substance", "setting": "yeast gene YDL128W", "value": 0.7}, {"measurement": "The level of expressed mRNA in the presence of chemical substance/The level of expressed mRNA in the absence of chemical substance", "setting": "yeast gene YDL198C", "value": 1.7}, {"measurement": "The level of expressed mRNA in the presence of chemical substance/The level of expressed mRNA in the absence of chemical substance", "setting": "yeast gene YDL210W", "value": 1.1}, {"measurement": "The level of expressed mRNA in the presence of chemical substance/The level of expressed mRNA in the absence of chemical substance", "setting": "yeast gene YDL245C", "value": 1.2}, {"measurement": "The level of expressed mRNA in the presence of chemical substance/The level of expressed mRNA in the absence of chemical substance", "setting": "yeast gene YDR038C", "value": 0.8}, {"measurement": "The level of expressed mRNA in the presence of chemical substance/The level of expressed mRNA in the absence of chemical substance", "setting": "yeast gene YDR039C", "value": 0.9}, {"measurement": "The level of expressed mRNA in the presence of chemical substance/The level of expressed mRNA in the absence of chemical substance", "setting": "yeast gene YDR086C", "value": 1.5}, {"measurement": "The level of expressed mRNA in the presence of chemical substance/The level of expressed mRNA in the absence of chemical substance", "setting": "yeast gene YDR270W", "value": 1.0}, {"measurement": "The level of expressed mRNA in the presence of chemical substance/The level of expressed mRNA in the absence of chemical substance", "setting": "yeast gene YDR298C", "value": 1.5}, {"measurement": "The level of expressed mRNA in the presence of chemical substance/The level of expressed mRNA in the absence of chemical substance", "setting": "yeast gene YDR342C", "value": 0.9}, {"measurement": "The level of expressed mRNA in the presence of chemical substance/The level of expressed mRNA in the absence of chemical substance", "setting": "yeast gene YDR343C", "value": 0.8}, {"measurement": "The level of expressed mRNA in the presence of chemical substance/The level of expressed mRNA in the absence of chemical substance", "setting": "yeast gene YDR345C", "value": 0.8}, {"measurement": "The level of expressed mRNA in the presence of chemical substance/The level of expressed mRNA in the absence of chemical substance", "setting": "yeast gene YDR387C", "value": 0.9}, {"measurement": "The level of expressed mRNA in the presence of chemical substance/The level of expressed mRNA in the absence of chemical substance", "setting": "yeast gene YDR497C", "value": 0.6}, {"measurement": "The level of expressed mRNA in the presence of chemical substance/The level of expressed mRNA in the absence of chemical substance", "setting": "yeast gene YEL027W", "value": 1.4}, {"measurement": "The level of expressed mRNA in the presence of chemical substance/The level of expressed mRNA in the absence of chemical substance", "setting": "yeast gene YEL063C", "value": 0.8}, {"measurement": "The level of expressed mRNA in the presence of chemical substance/The level of expressed mRNA in the absence of chemical substance", "setting": "yeast gene YEL065W", "value": 0.4}, {"measurement": "The level of expressed mRNA in the presence of chemical substance/The level of expressed mRNA in the absence of chemical substance", "setting": "yeast gene YER053C", "value": 1.3}, {"measurement": "The level of expressed mRNA in the presence of chemical substance/The level of expressed mRNA in the absence of chemical substance", "setting": "yeast gene YFL011W", "value": 0.8}, {"measurement": "The level of expressed mRNA in the presence of chemical substance/The level of expressed mRNA in the absence of chemical substance", "setting": "yeast gene YFL041W", "value": 1.0}, {"measurement": "The level of expressed mRNA in the presence of chemical substance/The level of expressed mRNA in the absence of chemical substance", "setting": "yeast gene YFL050C", "value": 1.0}, {"measurement": "The level of expressed mRNA in the presence of chemical substance/The level of expressed mRNA in the absence of chemical substance", "setting": "yeast gene YFL054C", "value": 0.9}, {"measurement": "The level of expressed mRNA in the presence of chemical substance/The level of expressed mRNA in the absence of chemical substance", "setting": "yeast gene YGL006W", "value": 0.9}, {"measurement": "The level of expressed mRNA in the presence of chemical substance/The level of expressed mRNA in the absence of chemical substance", "setting": "yeast gene YGL008C", "value": 1.2}, {"measurement": "The level of expressed mRNA in the presence of chemical substance/The level of expressed mRNA in the absence of chemical substance", "setting": "yeast gene YGL104C", "value": 1.0}, {"measurement": "The level of expressed mRNA in the presence of chemical substance/The level of expressed mRNA in the absence of chemical substance", "setting": "yeast gene YGL167C", "value": 0.8}, {"measurement": "The level of expressed mRNA in the presence of chemical substance/The level of expressed mRNA in the absence of chemical substance", "setting": "yeast gene YGL255W", "value": 1.0}, {"measurement": "The level of expressed mRNA in the presence of chemical substance/The level of expressed mRNA in the absence of chemical substance", "setting": "yeast gene YGR055W", "value": 1.2}, {"measurement": "The level of expressed mRNA in the presence of chemical substance/The level of expressed mRNA in the absence of chemical substance", "setting": "yeast gene YGR065C", "value": 1.3}, {"measurement": "The level of expressed mRNA in the presence of chemical substance/The level of expressed mRNA in the absence of chemical substance", "setting": "yeast gene YGR082W", "value": 0.9}, {"measurement": "The level of expressed mRNA in the presence of chemical substance/The level of expressed mRNA in the absence of chemical substance", "setting": "yeast gene YGR096W", "value": 1.2}, {"measurement": "The level of expressed mRNA in the presence of chemical substance/The level of expressed mRNA in the absence of chemical substance", "setting": "yeast gene YGR138C", "value": 0.9}, {"measurement": "The level of expressed mRNA in the presence of chemical substance/The level of expressed mRNA in the absence of chemical substance", "setting": "yeast gene YGR191W", "value": 0.7}, {"measurement": "The level of expressed mRNA in the presence of chemical substance/The level of expressed mRNA in the absence of chemical substance", "setting": "yeast gene YGR197C", "value": 1.5}, {"measurement": "The level of expressed mRNA in the presence of chemical substance/The level of expressed mRNA in the absence of chemical substance", "setting": "yeast gene YGR224W", "value": 0.9}, {"measurement": "The level of expressed mRNA in the presence of chemical substance/The level of expressed mRNA in the absence of chemical substance", "setting": "yeast gene YGR260W", "value": 0.7}, {"measurement": "The level of expressed mRNA in the presence of chemical substance/The level of expressed mRNA in the absence of chemical substance", "setting": "yeast gene YGR281W", "value": 0.9}]}]}
